Where a name gives a salt, the structure may show the parent alone. Read-outs that look alike come from different tables or passages of the source. Non-standard residues stand in square brackets, D forms with d. Residues, ends and D or L forms follow the SMILES beside them. ξ: configuration not given here. *: point of attachment. NMeI = CC[C@H](C)[C@H](NC)C(=O)O; NMeξIle = CC[C@H](C)C(NC)C(=O)O; NMeD = CN[C@@H](CC(=O)O)C(=O)O; NMeV = CN[C@H](C(=O)O)C(C)C; Pip = O=C(O)[C@@H]1CCCCN1; Lac = C[C@H](O)C(=O)O; OtBu = CC(C)(C)O*
Tests used:
[1] = cited from earlier work; for absorption (in words): oral unless stated
[2] = system: p-glycoprotein; settings: cited from earlier work
[3] = system: multidrug resistant cells; settings: no change in nonresistant parental cells; cited from earlier work
[4] = system: p-glycoprotein; settings: cited from earlier work; remark: listed apart in the source
[5] = Plasma pharmacokinetics of flavopiridol and flavopiridol glucuronide in metastatic renal cancer patients (HPLC); assay type: in vivo, human
Description: All patients had metastatic renal cancer. […] Written informed consent was obtained from each patient in accordance with institutional and Federal guidelines. […] Toxicity assessment was done according to the Cancer and Leukemia Group B (CALGB) expanded toxicity criteria. For grade 3 or greater diarrheal episodes, patients were given loperamide or diphenoxylate hydrochloride plus atropine sulfate (Lomotil®). If diarrhea continued, treatment with octreotide acetate was begun. […] Heparinized blood samples were drawn at 23, 47, and 71 h into the infusion. Plasma was separated immediately by centrifugation and stored at −70° C. until analysis. Chemicals were obtained from Fisher Scientific (Itasca, Ill.) and Sigma Chemical Co. (St. Louis, Mo.). Quantitation of flavopiridol and its glucuronide in plasma was performed by high-pressure liquid chromatography (HPLC). […] Louis, Mo.), and these samples were incubated for 2 h (25° C.) prior to the addition of acetonitrile. […] Human plasma for the preparation of calibration standards was purchased from the Blood Bank at the University of Chicago Hospitals. […] Plasma samples for pharmacokinetics were collected during the first cycle of treatment (at 23, 47, and 71 h). […] Data are expressed as median values and interquartile range (the range of values between the 25th and the 75th percentile of the distribution). Significance has been tested by two-sided statistical tests. […] Moreover, Fisher's exact test was used to assess the association of flavopiridol systemic metabolism with the development of diarrhea. The distribution of the metabolic ratios at 71 h was investigated by constructing a frequency distribution histogram.

[6] = Diarrhea (CALGB expanded toxicity criteria) in patients given flavopiridol, by glucuronidation phenotype; assay type: in vivo, human
Description: Toxicity assessment was done according to the Cancer and Leukemia Group B (CALGB) expanded toxicity criteria. For grade 3 or greater diarrheal episodes, patients were given loperamide or diphenoxylate hydrochloride plus atropine sulfate (Lomotil®). If diarrhea continued, treatment with octreotide acetate was begun.
Data are expressed as median values and interquartile range (the range of values between the 25th and the 75th percentile of the distribution). Significance has been tested by two-sided statistical tests. […] For this analysis, the adjusted P<0.017 (0.05/3) was considered significant.
Poor and extensive glucuronidators had metabolic ratios lower and higher than 1.2, respectively.

[7] = FLAVO glucuronidation assay, normal human liver microsomes; assay type: in vitro ADME; settings: pooled human liver microsomes, pH 7.4; pool of human liver microsomes, substrate 0.1 to 3 mM, Lineweaver-Burke
Description: FLAVO glucuronidation assay. Reaction conditions were optimized using a range of substrate (0.02-1 mM), human liver microsomal protein (0.25-6 mg/ml) and UDPGA (2-10 mM) concentrations, as well as varying detergents (Brij 58, OLPC, CHAPS, Triton X-100, OLPC), and incubation times (0.5-4 h). […] The final incubation volume (250 μl) contained 50 mM tris-HCl (pH 7.4), 10 mM magnesium chloride, 0.5 mM FLAVO, 3 mg/ml protein, and 3 mM UDPGA. After incubation in a shaking water bath at 37° C. for 3 h, the reaction was terminated by the addition of 1 ml of acetonitrile. […] The supernatant was spiked with 100 μl of internal standard (100 μg/ml flavone in acetonitrile), and evaporated to dryness using nitrogen gas. Control experiments were performed simultaneously by omitting UDPGA. […] Aliquots (125 μl) were analyzed by high performance liquid chromatography (HPLC; Hitachi Instruments, Inc., San Jose, Calif., USA) with UV detection (265 nm). Reversed-phase chromatography was carried out using a μBondapak Phenyl column (10 μm, 3.9×300 mm; Waters Corporation, Milford, Mass., USA), and a μBondapak Phenyl guard-pak insert (Waters Corporation, Milford, Mass., USA).
Data analysis and statistics. Results were expressed as mean ± standard deviation (SD) of a single experiment performed in triplicate. […]

[8] = system: neoplastic cells; settings: in vitro; cited from earlier work
[9] = system: p-glycoprotein expressing cell lines; settings: cited from earlier work

## CCN1CCN(C(=O)N[C@@H](C(=O)N[C@@H]2C(=O)N3C(C(=O)O)=C(CSc4nnnn4C)CS[C@H]23)c2ccc(O)cc2)C(=O)C1=O [Cefoperazone]
[1]; human, in vivo
  eliminated by biliary secretion: 70%
  eliminated by urinary excretion: 30%

## CN(C)CCCN1c2ccccc2Sc2ccc(Cl)cc21 [Chlorpromazine hydrochloride, 10H-Phenothiazine-10-propanamine, 2-chloro-N,N-dimethyl-, mono hydrochloride]
[1]; intramuscular
  volume of distribution after intramuscular administration: 21.8 L/kg

## CCOC(=O)C(C)(C)Oc1ccc(Cl)cc1 [Clofibrate, propanoic acid, 2-(4-chlorophenoxy)-2-methyl-,ethyl ester]
[1]; anuria
  half-life in anuria: over 100 hr
[1]; human, in vivo
  half-life, average or usual value: 11 h
[1]; mostly to a glucuronide conjugate
  fraction metabolized: About 60%

## O=C1CN=C(c2ccccc2Cl)c2cc([N+](=O)[O-])ccc2N1 [Clonazepam, 2H-1,4-Benzodiazepin-2-one, 5-(2-chlorophenyl)-1,3-dihydro-7-nitro-]
[1]; human, in vivo
  therapeutic plasma levels: 20 to 80 ng/mL

## OCCN1CCN(CCCN2c3ccccc3Sc3ccc(C(F)(F)F)cc32)CC1 [Fluphenazine hydrochloride]
[1]
  absorption (in words): absorbed rapidly

## CCOC(=O)C1=C(C)NC(C)=C(C(=O)OC)C1c1cccc([N+](=O)[O-])c1 (centres unmarked) [Nitrendipine, 3,5-Pyridinedicarboxylic acid, 1,4-dihydro-2,6-dimethyl-4-(3-nitrophenyl)-, ethyl methyl ester]
[1]; human, in vivo
  bound to plasma protein: About 98%
  half-life, average or usual value: 12 h

## CCC1(c2ccccc2)C(=O)NC(=O)NC1=O [Phenobarbital, 2,4,6(1H,3H,5H)-Pyrimidinetrione, 5-ethyl-5-phenyl-]
[1]; human, in vivo, po
  fraction of an oral dose absorbed: Approximately 80%
[1]; human, in vivo
  therapeutic plasma levels: 10000 to 30000 ng/mL
  time to peak plasma levels: 16 to 18 h

## O=C1NC(=O)C(c2ccccc2)(c2ccccc2)N1.[Na] [Phenytoin Sodium, 2,4-Imidazolidinedione, 5,5-diphenyl-, monosodium salt]
[1]; human, in vivo
  lethal plasma levels: ~100 µg/mL

## CCCN(CCC)S(=O)(=O)c1ccc(C(=O)O)cc1 [Probenecid]
[1]
  absorption (in words): completely absorbed

## CC(C)NCC(O)COc1cccc2ccccc12 (centres unmarked) [Propranolol]
[1]; human, in vivo
  bound to plasma protein: Approximately 90%
[1]; inter-individual
  variability in plasma concentrations after oral administration: approximately 20 fold

## C=C[C@H]1C[N@@]2CC[C@H]1C[C@@H]2[C@@H](O)c1ccnc2ccc(OC)cc12 [Quinidine]
[1]; human, in vivo
  elimination by hepatic biotransformation: 50-60%

## COC(=O)[C@H]1[C@H]2C[C@@H]3c4[nH]c5cc(OC)ccc5c4CCN3C[C@H]2C[C@@H](OC(=O)c2cc(OC)c(OC)c(OC)c2)[C@@H]1OC [Reserpine, Yohimban-16-carboxylic acid, 11,17-dimethoxy-18-[(3,4,5-trimethoxybenzoyl)oxy]-, methyl ester, (3β, 16β, 17α, 18β, 20α)-]
[1]
  absorption (in words): absorbed poorly and erratically

## CC[C@H](C)C1C(=O)N(C)[C@@H]([C@@H](C)CC)C(=O)NCC(=O)N(C)[C@@H](C(C)C)C(=O)N[C@@H](Cc2ccc(OC)cc2)C(=O)O[C@@H](C)C(=O)N2CCCC[C@H]2C(=O)N(C)[C@@H](C(C)C)C(=O)N[C@@H](C(C)C)C(=O)N(C)[C@@H](CC(=O)OC(C)(C)C)C(=O)N1C (some centres unmarked) [SDZ 280-446] (cyclo(G[NMeV]Y(Me)[Lac][Pip][NMeV]V[NMeD](OtBu)[NMeξIle][NMeI]))
[2]
  p-glycoprotein inhibition relative to verapamil: stronger inhibitors than verapamil

## CC(C)(C)c1ccc(C(O)CCCN2CCC(C(O)(c3ccccc3)c3ccccc3)CC2)cc1 (stereo not drawn) [Terfenadine, 1-Piperidinebutanol, α-[4-(1,1-dimethylethyl)phenyl]-4-(hydroxydiphenylmethyl)-]
[1]; human, in vivo
  bound to plasma protein: 97%
[1]
  absorption (in words): absorbed rapidly and almost completely

## C[C@@H]1C[C@H]2[C@@H]3CCC4=CC(=O)C=C[C@]4(C)C3=CC[C@]2(C)[C@H]1C(=O)CN1CCN(c2cc(N3CCCC3)nc(N3CCCC3)n2)CC1 [Tirilazad]
[3]
  sensitization of resistant cells to killing by vinblastine: 66 fold
[4]
  inhibition of photoaffinity labeling of p-glycoprotein relative to verapamil: more effectively than does verapamil

## CN1CC[C@H](c2c(O[C@@H]3O[C@H](C(=O)O)[C@@H](O)[C@H](O)[C@H]3O)cc(O)c3c(=O)cc(-c4ccccc4Cl)oc23)[C@H](O)C1 [flavopiridol glucuronide, 7-O-β-glucopyranuronosyl-flavopiridol]
[5]; human, in vivo
  inter-patient variability of plasma level (coefficient of variation) at 23 h: 83%
  inter-patient variability of plasma level (coefficient of variation) at 47 h: 102%
  inter-patient variability of plasma level (coefficient of variation) at 71 h: 107%

## CN1CC[C@H](c2c(O)cc(O)c3c(=O)cc(-c4ccccc4Cl)oc23)[C@H](O)C1 [flavopiridol]
[5]; 23 h
  inter-patient variability of plasma level (coefficient of variation) at 23 h: 81%
[5]; human, plasma, intravenous, 72 h-continuous infusion 50 mg/m2/day, first cycle, 23 h into the infusion, 22 patients, read-out: median plasma concentration (interquartile range) at 23 h
  concentration at 23 h: 389 nM
[5]; human, plasma, intravenous, 72 h-continuous infusion 50 mg/m2/day, first cycle, 47 h into the infusion, read-out: median plasma concentration (interquartile range) at 47 h
  concentration at 47 h: 412 nM
[5]; human, plasma, intravenous, 72 h-continuous infusion 50 mg/m2/day, first cycle, 71 h into the infusion, read-out: median plasma concentration (interquartile range) at 71 h
  concentration at 71 h: 397 nM
[6]; extensive glucuronidators
  extensive glucuronidators who did not develop diarrhea: 73%
[6]; first cycle
  patients with grade 1 diarrhea: Five
  patients with grade 2 diarrhea: six
  patients with grade 3 diarrhea: two
[6]; metabolic ratio at 71 h higher than 1.2
  extensive glucuronidators who did not develop diarrhea: 8 of 11
[6]; metabolic ratio at 71 h lower than 1.2
  poor glucuronidators who developed diarrhea: 10 of 11
[6]; poor glucuronidators
  diarrhea present in poor glucuronidators of flavopiridol: 91%
[7]
  Km at 3 h: 642 µM
[8]
  concentrations showing differential growth inhibitory activity: below 200 nM

## Cc1ccc(C)c(OCCCC(C)(C)C(=O)O)c1 [gemfibrozil]
[1]; single dose 600 mg
  plasma concentration after 2 hours: about 15 Ug/ml
  plasma concentration after 9 hours: ~5 Ug/ml

## CC[C@H](C)[C@H]1O[C@]2(CC[C@@H]1C)C[C@@H]1C[C@@H](C/C=C(\C)[C@@H](O[C@H]3C[C@H](OC)[C@@H](O[C@H]4C[C@H](OC)[C@@H](O)[C@H](C)O4)[C@H](C)O3)[C@@H](C)/C=C/C=C3\CO[C@@H]4[C@H](O)C(C)=C[C@@H](C(=O)O1)[C@]34O)O2 [ivermectin]
[1]; oral administration
  time to peak concentrations in plasma: ≤ 4 h
[1]; verapamil: normal persons
  half-life: about 10 hours

## OCCN1CCN(CC/C=C2\c3ccccc3Sc3ccc(C(F)(F)F)cc32)CC1 [trans-flupenthixol]
[9]
  potency for reversing MDR relative to equimolar concentrations of verapamil: two- to three-fold more potent
  reversal of resistance to doxorubicin, vincristine, and colchicine: fully reversed resistance

## benzothiazepin-4(5H)-one, 3-(acetyloxy)-5-[2-(dimethylamino)ethyl]-2,3-dihydro-2-(4-methoxyphenyl)-, (+)-cis-, monohydrochloride [Diltiazem]
[1]; human, in vivo
  bound to plasma protein: 70-80%
  drug appearing unchanged in the urine: Less than 4%
[1]; oral
  fraction of an oral dose absorbed: 80%
[1]; plasma/serum/elimination half-life as printed
  half-life: about 4 hr
